Values quoted from earlier work in publication PMC7315836 (Journal of medicinal chemistry, 2020).
Read-outs that look alike come from different tables or passages of the source.

Columns and labels:
SARS-CoV [1] = tested on: SARS-CoV
MERS-CoV [2] = tested on: MERS-CoV
cathepsin L = cathepsin L inhibition assay
[3] = tested on: human aortic endothelial cells; settings: 100 μM
TMPRSS2 = settings: by inhibiting TMPRSS2 activity
SARS-CoV-2 [4] = tested on: SARS-CoV-2
SARS-CoV [5] = tested on: SARS-CoV; remark: listed apart in the source
HCoV-229E [6] = tested on: HCoV-229E
furin = settings: HEK293 cells
ACE2 [7] = settings: read-out: IC50, ACE2 catalytic activity
[8] = molecular target: TACE (TNF-α converting enzyme); settings: read-out: IC50, ACE2 shedding
[9] = acute toxicity, mice
MERS-CoV [10] = tested on: MERS-CoV; remark: listed apart in the source
MERS-CoV [11] = tested on: MERS-CoV; remark: listed apart in the source
ACE2 [12] = molecular target: ACE2
ACE2 [13] = tested on: ACE2; remark: listed apart in the source
HCoV-OC43 [14] = settings: HCoV-OC43 pseudovirus
HCoV-NL63 = HCoV-NL63 pseudovirus
HCoV-229E [15] = settings: HCoV-229E pseudovirus
[16] = not given; remark: listed apart in the source
HCoV-OC43 [17] = settings: 5 mg/kg
MERS-CoV [18] = settings: mouse, in vivo
SARS-CoV-2 [19] = settings: SARS-CoV-2 pseudovirus assay
[20] = tested on: SARS-CoV-2 S-mediated membrane fusion; settings: fusion inhibitory assay
SARS-CoV [21] = tested on: SARS-CoV; remark: listed apart in the source

## COc1ccc(S(=O)(=O)O)cc1/N=N/c1c(S(=O)(=O)O)cc2cc(Nc3nc(Nc4ccccc4)nc(Nc4cc(C)c(/N=N/c5cc(S(=O)(=O)O)cc6cc(S(=O)(=O)O)cc(O)c56)cc4OC)n3)ccc2c1O [ADS-J1 (15), ADS-J1]
SARS-CoV [1]
  IC50: 3890 nM
MERS-CoV [2]
  IC50: 600 nM
coronaviruses
  IC50: 600 to 3890 nM

## CC(C)(C)OC(=O)N[C@@H](Cc1c[nH]c2ccccc12)C(=O)NNC(=O)OCC(=O)N1CCCc2ccccc21 [CID23631927 (19), CID 23631927]
Cathepsin L
  IC50: 6.9 nM
[3]
  toxicity: did not show any sign of toxicity

## CCc1ccccc1NC(=O)CSC(=O)NNC(=O)[C@H](Cc1c[nH]c2ccccc12)NC(=O)OC(C)(C)C [CID 16725315 (18), CID 16725315]
Cathepsin L
  IC50: 56 nM

## CN(C)C(=O)COC(=O)Cc1ccc(OC(=O)c2ccc(NC(=N)N)cc2)cc1 [Camostat (22), Camostat]
TMPRSS2
  concentration preventing SARS-CoV infections: 10 µM
SARS-CoV-2 [4]
  viral entry of SARS-CoV-2: could prevent the viral entry of SARS-CoV-2

## CCN(CC)CCCC(C)Nc1ccnc2cc(Cl)ccc12 (stereo not shown) [Chloroquine (4), Chloroquine]
SARS-CoV [5]
  ED50: 4400 nM
other
  toxicity that could be caused: ventricular arrhythmias,[72] QT prolongation,[72],[73] retinopathy,[74] and other cardiac-related toxicity
coronaviruses
  IC50: 1130 to 4400 nM

## CCC[C@@H]([C@@H](CC(C)C)C(=O)N[C@@H](CCCCNC(=O)OCc1ccccc1)C(=O)Nc1nccs1)N(O)C=O [GW280264X (6), GW280264X]
ADAM17
  concentration reducing shedding of ACE2: 1 nM

## CCN(CCO)CCCC(C)Nc1ccnc2cc(Cl)ccc12 (stereo not shown) [Hydroxychloroquine (5), Hydroxychloroquine]
other
  toxicity that could be caused: ventricular arrhythmias,[72] QT prolongation,[72],[73] retinopathy,[74] and other cardiac-related toxicity

## O=C(NC(Cc1ccccc1)C(=O)N1CCC(O)(c2ccc(Br)cc2)CC1)c1ccccc1 (stereo not shown) [K22 (2), K22]
HCoV-229E [6]
  IC50: 700 nM

## CN1CCN(C(=O)N[C@@H](Cc2ccccc2)C(=O)N[C@H](/C=C/S(=O)(=O)c2ccccc2)CCc2ccccc2)CC1 [K11777 (21), K11777]
coronaviruses
  IC50: 0.68 to 46.1 nM

## CC(C)(C)[C@H](NC(=O)[C@H](CCONC(=N)N)NC(=O)Cc1ccc(CNC(=N)N)cc1)C(=O)N[C@@H](CCONC(=N)N)C(=O)NCc1ccc(C(=N)N)cc1 [MI-1851 (24), MI-1851]
furin
  proteolytic processing of SARS-CoV-2 S protein by endogenous furin: could prevent proteolytic processing of the S protein

## NCCNCCN1CC1 [NAAE (3), N-(2-amino-ethyl)-1 aziridine-ethanamine]
ACE2 [7]
  IC50: 57000 nM

## CC(C)CC(CC(=O)NO)C(=O)NC(Cc1ccc2ccccc2c1)C(=O)NC(C)C(N)=O (stereo not shown) [TAPI-0 (7), TAPI-0]
[8]
  IC50: 100 nM

## O=C(OC[C@H]1O[C@@H](OC(=O)c2cc(O)c(O)c(O)c2)[C@H](OC(=O)c2cc(O)c(O)c(O)c2)[C@H](OC(=O)c2cc(O)c(O)c(O)c2)[C@@H]1O)c1cc(O)c(O)c(O)c1 [TGG (12), TGG]
[9]
  50% lethal dose: ~ 456 mg/kg

## Cc1nc(Nc2ncc(C(=O)Nc3c(C)cccc3Cl)s2)cc(N2CCN(CCO)CC2)n1 [dasatinib (29), dasatinib]
MERS-CoV [10]
  IC50: 5400 nM
coronaviruses
  IC50: 2100 to 5400 nM

## O=c1cc(-c2ccc(O)c(O)c2)oc2cc(O)cc(O)c12 [luteolin (13), luteolin]
[9]
  50% lethal dose: 232.2 mg/kg

## CN1CCN(CCOc2cc(OC3CCOCC3)c3c(Nc4c(Cl)ccc5c4OCO5)ncnc3c2)CC1 [saracatinib (30), saracatinib]
MERS-CoV [11]
  IC50: 2900 nM
coronaviruses
  IC50: 2400 to 5100 nM

## DX600
ACE2 [12]
  Ki: 2.8 nM
ACE
  inhibition of ACE activity: did not inhibit ACE activity
ACE2 [13]
  stability: chemically stable and not hydrolyzable by ACE2

## EK1
HCoV-OC43 [14]
  IC50: 1810 nM
HCoV-NL63
  IC50: 6020 nM
HCoV-229E [15]
  IC50: 3350 nM
[16]
  cytotoxic concentration (not cytotoxic up to): > 1 mM
HCoV-OC43 [17]
  protection of mice from HCoV-OC43: nearly completely protected
MERS-CoV [18]
  protection of mice against MERS-CoV infection: nearly completely protected
SARS-CoV-2 [19]
  IC50: 2380 nM
[20]
  IC50: 190 nM

## MDL28170 [MDL28170 (17)]
SARS-CoV [21]
  EC50: ~100 nM

## Teicoplanin
SARS-CoV-2 pseudoviruses
  IC50: 1660 nM
